Test results: patent US11591334B2, “Substituted pyrrolizines for the treatment of hepatitis B” (SHANGHAI LONGWOOD BIOPHARMACEUTICALS CO., LTD., priority 2017, dated 2023)
Where two headings read alike, the source gives them in different places.

What was measured:
[1] = Determination of cytotoxicity (Experiment 3, resazurin assay); type: cell-based; conditions: human
Experimental: Compound dilution. All the compounds for in vitro anti-HBV activity assay and cytotoxicity assay were 3-fold diluted into 8 concentrations. The final concentration of the tested compound was 30 μM, the final starting concentration of reference compound GLS4 was 1 μM, and the final concentration of DMSO was 0.5%. Experiment 3: Determination of Cytotoxicity The cytotoxicity of the test compound was tested using HepG2 cells. The cells were incubated for 4 days in the presence of the test compound. Cell activity was assessed using the resazurin assay.

HBV = test: Determination of anti-HBV activity in HepG2.2.15 cell (Experiment 2, HBV DNA in supernatant by qPCR); type: cell-based; conditions: Hepatitis B virus
Experimental: Experiment 2: Determination of Anti-HBV Activity in HepG2.2.15 Cell
Compound dilution. All the compounds for in vitro anti-HBV activity assay and cytotoxicity assay were 3-fold diluted into 8 concentrations. The final concentration of the tested compound was 30 μM, the final starting concentration of reference compound GLS4 was 1 μM, and the final concentration of DMSO was 0.5%.
HepG2.2.15 cell (4×10^4 cell/well) was inoculated into 96 well plate, and cultured overnight in 37° C., 5% CO2. On the second day, fresh culture medium containing different concentrations of the compound was added into the culture wells. On the fifth day, the old culture solution in the culture well was aspirated and fresh culture medium containing different concentrations of the compound was added.
On the eighth day, the supernatant in the culture well was collected for extraction of HBV DNA, and the content of DNA in the supernatant of HepG2.2.15 HBV was detected by qPCR. After the supernatant was collected, the medium and Cell-titer Glo reagent were added into the culture well, and the chemiluminescence value of each well was measured by microplate reader.
The activity calculation formula was as follows: Y=Bottom+(Top−Bottom)/(1+10^((LogIC50−X)*Hillslope));

C150 protein = biological target: T1, C150 protein (Hepatitis B virus genotype D subtype adw, UniProt P03147, C107A/C48A/C61A/R150C); test: In vitro anti-HBV nucleocapsid assembly activity test (Experiment 1, protein experiment); type: biochemical
T1 construct: purchased WuXi Apptec Co., Ltd
Experimental: Experiment 1: In Vitro Anti-HBV Nucleocapsid Assembly Activity Test
Main Reagents and Raw Materials:
C150 protein was expressed and purified by WuXi Apptec Co., Ltd.
BoDIPY® FL was purchased from Thermo Fisher Scientific.
Protein Fluorescent Label:
150 μL of 2% w/v skimmed milk was added into each well of 96-well plate, and incubated at room temperature for 2 hours. The skimmed milk was aspirated. The plate was washed with deionized water and dried, and stored at room temperature. C150 protein (3 mg per tube) was desalted with 5 ml Hitrap desalting column. The desalted C150 protein of each tube was added with 50 mM BoDIPY® FL Fluorescent Dye (20 μl), and incubated under 4° C. overnight in the dark after well mixed. Sephadex G-25 gel was used for filtration to remove fluorescent dyes that were not bounded onto C150. The C150 fluorescent labeling efficiency was calculated according to the following equation: [BoDIPY®FL]=A504/78,000 M^−1; [C150Bo]=(A280−[BoDIPY®FL]×1300 M^−1)/60,900 M^−1; Fluorescent Labeling Efficiency=[BoDIPY®FL]/[C150Bo];
The mother liquor of compound was diluted with DMSO to 6 mM, then diluted to 600 μM with 50 mM HEPES, and then further 3-fold diluted with 10 DMSO/50 mM HEPES to 8 concentrations.
C150Bo was diluted to 2 μM with 50 mM HEPES. 37.5 μL of C150Bo and 2.5 μL of compound at each concentration were added into a 96 well plate and well mixed, then incubated at room temperature for 15 minutes. 10 μl of 750 mM NaCl/50 mM HEPES were added into the each reaction well, and the final concentration of NaCl was 150 mM.
Into the control wells in the 0% protein group 10 μL of 50 mM HEPES was added, and the final concentration of NaCl was 0 mM.
Into the control wells in the 100% protein group 10 μL of 5 M/50 mM HEPES was added, and the final concentration of NaCl was 1 M.
The final concentration of DMSO was 0.5%, the maximum final concentration of the compound was 30 μM, and final concentration of C150Bo was 1.5 μM. The mixture was incubated at room temperature for 1 hour. Fluorescence signal was measured (excitation light was 485 nm; emission light was 535 nm).
Data Analysis % protein assembly=[1−(Sample fluorescence value−1 M NaCl fluorescence value)/(0 M NaCl fluorescence value−1 M NaCl fluorescence value)]×100.
IC50 value was calculated by prism software, and the equation was as follows: Y=Bottom+(Top−Bottom)/(1+10^((LogIC50−X)HillSlope));

[2] = HepG2 cells, incubated for 4 days, resazurin assay, read-out: Experiment 3 Cytotoxicity CC50
[3] = HepG2.2.15 cells, HBV DNA in supernatant on the eighth day, qPCR, read-out: Experiment 2 Cell experiment EC50
[4] = fluorescently labeled C150 (C150Bo) 1.5 μM, 150 mM NaCl, 1 hour at room temperature, read-out: Experiment 1 Protein experiment IC50
[5] = HepG2.2.15, read-out: Experiment 2 Cell experiment EC50 (nM)

T1 sequence (P03147 1-150 C48A/C61A/C107A/R150C): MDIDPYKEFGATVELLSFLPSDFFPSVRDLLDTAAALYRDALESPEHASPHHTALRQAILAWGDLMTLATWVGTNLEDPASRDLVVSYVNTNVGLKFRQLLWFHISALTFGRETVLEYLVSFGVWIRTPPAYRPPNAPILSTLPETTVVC

Structure (SMILES)	CC50 at 4 days [1, 2] [µM]	EC50 (HBV; [3]) [nM]	IC50 (C150 protein; [4]) [µM]	IC50 (C150 protein) [µM]	CC50 at 4 days [1] [µM]	EC50 (HBV; [5]) [nM]
C[C@@H](NS(=O)(=O)c1c(Cl)c(C(=O)Nc2ccc(F)c(F)c2)n2c1C=CC2)C(F)(F)F [Compound 10a]	> 30	0.1 to 100	1 to 100			
Cc1c(S(=O)(=O)NC2(C)COC2)c2n(c1C(=O)Nc1ccnc(C(F)F)c1)CC=C2 [Compound 10aa]	> 30	100 to 1000	1 to 100			
C[C@@H](NS(=O)(=O)c1c(Cl)c(C(=O)Nc2cc(F)c(F)c(F)c2)n2c1C=CC2)C(F)(F)F [Compound 10b]	> 30	0.1 to 100		1 to 100		
C[C@@H](NS(=O)(=O)c1c(Cl)c(C(=O)Nc2ccc(F)c(C#N)c2)n2c1C=CC2)C(F)(F)F [Compound 10c]	> 30	0.1 to 100		1 to 100		
CC(NS(=O)(=O)c1c(Cl)c(C(=O)Nc2ccnc(C(F)F)c2)n2c1C=CC2)C(F)(F)F (stereo not drawn) [Compound 10d]	> 30	100 to 1000	1 to 100			
CC(NS(=O)(=O)c1c(Cl)c(C(=O)Nc2ccnc(Cl)c2)n2c1C=CC2)C(F)(F)F (stereo not drawn) [Compound 10e]	> 30	100 to 1000	1 to 100			
CC(NS(=O)(=O)c1c(Cl)c(C(=O)Nc2cc(F)nc(C#N)c2)n2c1C=CC2)C(F)(F)F (stereo not drawn) [Compound 10f]	> 30	0.1 to 100		1 to 100		
Cc1c(S(=O)(=O)NC(C)C(F)(F)F)c2n(c1C(=O)Nc1ccc(F)c(F)c1)CC=C2 (stereo not drawn) [Compound 10g]	> 30	0.1 to 100	1 to 100			
Cc1c(S(=O)(=O)NC2C3CCC2CC(O)(CO)C3)c2n(c1C(=O)Nc1ccc(F)c(F)c1)CC=C2 (stereo not drawn) [Compound 10mm]	> 30	100 to 1000	1 to 100			
O=C(Nc1ccc(F)c(F)c1)c1c(Cl)c(S(=O)(=O)NC2C3CCC2CC(O)(c2cc(-c4ccccc4)on2)C3)c2n1CC=C2 (stereo not drawn) [Compound 10oo]	> 30	100 to 1000	1 to 100			
Cc1c(S(=O)(=O)N2C3CCC2CC(O)(CO)C3)c2n(c1C(=O)Nc1cc(F)nc(C#N)c1)CC=C2 (stereo not drawn) [Compound 10vv]				1 to 100	> 30	0.1 to 100
O=C(Nc1ccc(F)c(F)c1)c1c(Cl)c(S(=O)(=O)N2C3CCC2CC(O)(c2cc(-c4ccccc4)on2)C3)c2n1CC=C2 (stereo not drawn) [Compound 10ww]				1 to 100	> 30	0.1 to 100
CC(NS(=O)(=O)c1c(Cl)c(C(=O)Nc2ccc(F)c(F)c2)n2c1CCC2)C(F)(F)F (stereo not drawn) [Compound 20a]	> 30	0.1 to 100	1 to 100			
CC(NS(=O)(=O)c1c(Cl)c(C(=O)Nc2cc(F)c(F)c(F)c2)n2c1CCC2)C(F)(F)F (stereo not drawn) [Compound 20b]	> 30	0.1 to 100		< 1		
CC(CO)NS(=O)(=O)c1c(Cl)c(C(=O)Nc2ccc(F)c(F)c2)n2c1CCC2 (stereo not drawn) [Compound 20cc]	> 30	100 to 1000	1 to 100			
CC(CO)NS(=O)(=O)c1c(Cl)c(C(=O)Nc2ccc(F)c(C#N)c2)n2c1CCC2 (stereo not drawn) [Compound 20dd]	> 30	100 to 1000	1 to 100			
CC(CO)NS(=O)(=O)c1c(Cl)c(C(=O)Nc2ccnc(C(F)F)c2)n2c1CCC2 (stereo not drawn) [Compound 20ee]	> 30	0.1 to 100	1 to 100			
